Data reported in patent US20140249135A1, “PIM KINASE INHIBITORS AND METHODS OF THEIR USE” (NOVARTIS AG, priority 2007, published 2014).
Where two headings read alike, the source gives them in different places.

Key:
Pim3 kinase = Pim3 kinase (Homo sapiens, UniProt Q86V86); test: Pim3 ATP depletion assay; type: biochemical
HEL 92.1.7 cells = test: Cell proliferation assay (CellTiter-Glo), HEL 92.1.7; type: cell-based; conditions: Homo sapiens
Method: HEL 92.1.7 cells (ATTC No. TIB-180, an erythroleukemia line derived from malignant peripheral blood), MV4-11 cells (ATCC No. CRL-9591, a human acute monocytic leukemia line) and PC3 cells (ATCC No. CRL-1435, a human prostatic adenocarcinoma line) were cultured in RPMI1640 supplemented with 10% FBS, sodium pyruvate and antibiotics. Cells were plated in the same medium at a density of 1000 cells per well into 96 well tissue culture plates, with outside wells vacant, on the day of assay.
Test compounds supplied in DMSO were diluted into DMSO at 500 times the desired final concentrations before dilution into culture media to 2 times final concentrations. Equal volumes of 2× compounds were added to the cells in 96 well plates and incubated at 37° C. for 3 days.
After 3 days plates were equilibrated to room temperature and equal volume of CellTiter-Glow Reagent (Promega) was added to the culture wells. The plates were agitated briefly and luminescent signal was measured with luminometer. The percent inhibition of the signal seen in cells treated with DMSO alone vs. cells treated with control compound was calculated and used to determine EC50 values (i.e., the concentration of a test compound that is required to obtain 50% of the maximum effect in the cells) for tested compounds, as shown in Example 763.

Pim1 kinase = Pim1 kinase (Homo sapiens, UniProt P11309); test: Pim1 ATP depletion assay; type: biochemical; conditions: Pim1 ATP depletion assay;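 further: Luciferase-luciferin luminescence readout of residual ATP after PIM1 transfers phosphate to a peptide substrate, 40 µM ATP added, reaction run to roughly half ATP consumption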
Chain of Pim1 kinase (P11309 whole entry): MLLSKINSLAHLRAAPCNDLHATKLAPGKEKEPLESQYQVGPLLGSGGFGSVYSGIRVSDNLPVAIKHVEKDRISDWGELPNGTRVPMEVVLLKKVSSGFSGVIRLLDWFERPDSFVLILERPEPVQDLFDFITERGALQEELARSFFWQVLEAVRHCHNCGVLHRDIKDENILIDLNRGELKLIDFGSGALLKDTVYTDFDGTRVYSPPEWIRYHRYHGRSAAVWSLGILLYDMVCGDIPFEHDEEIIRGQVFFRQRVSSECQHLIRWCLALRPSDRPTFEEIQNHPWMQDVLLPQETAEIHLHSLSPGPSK

Pim2 kinase = Pim2 kinase (Homo sapiens, UniProt Q9P1W9); test: Pim2 ATP depletion assay; type: biochemical;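 further: Luciferase-based luminescent readout of ATP remaining after PIM2 phosphorylates a BAD peptide, final 5 nM enzyme, 4 µM ATP, 10 µM peptide, 2.5% DMSO, run to roughly half ATP consumption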
Chain of Pim2 kinase (Q9P1W9 whole entry): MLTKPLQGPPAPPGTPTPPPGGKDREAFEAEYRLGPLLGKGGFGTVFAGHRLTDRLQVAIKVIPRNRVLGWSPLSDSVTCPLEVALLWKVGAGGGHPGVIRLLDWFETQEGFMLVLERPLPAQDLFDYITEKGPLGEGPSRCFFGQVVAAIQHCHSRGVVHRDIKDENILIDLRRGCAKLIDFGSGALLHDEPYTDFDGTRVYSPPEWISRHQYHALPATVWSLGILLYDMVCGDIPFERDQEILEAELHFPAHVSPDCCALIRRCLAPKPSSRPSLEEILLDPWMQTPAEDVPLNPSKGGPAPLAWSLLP

[1] = biological target: T1, human full length PKCE enzyme (Homo sapiens, UniProt Q02156); test: In vitro PKCE assay; type: biochemical; conditions: 10 nM enzyme, 40 uM peptide substrate, 20 uM ATP, KinaseGlo Plus readout; read-out: PKCε IC50
T1 construct: human full length PKCE enzyme purchased from InVitrogen; purchased InVitrogen
T1 sequence (Q02156 1-737): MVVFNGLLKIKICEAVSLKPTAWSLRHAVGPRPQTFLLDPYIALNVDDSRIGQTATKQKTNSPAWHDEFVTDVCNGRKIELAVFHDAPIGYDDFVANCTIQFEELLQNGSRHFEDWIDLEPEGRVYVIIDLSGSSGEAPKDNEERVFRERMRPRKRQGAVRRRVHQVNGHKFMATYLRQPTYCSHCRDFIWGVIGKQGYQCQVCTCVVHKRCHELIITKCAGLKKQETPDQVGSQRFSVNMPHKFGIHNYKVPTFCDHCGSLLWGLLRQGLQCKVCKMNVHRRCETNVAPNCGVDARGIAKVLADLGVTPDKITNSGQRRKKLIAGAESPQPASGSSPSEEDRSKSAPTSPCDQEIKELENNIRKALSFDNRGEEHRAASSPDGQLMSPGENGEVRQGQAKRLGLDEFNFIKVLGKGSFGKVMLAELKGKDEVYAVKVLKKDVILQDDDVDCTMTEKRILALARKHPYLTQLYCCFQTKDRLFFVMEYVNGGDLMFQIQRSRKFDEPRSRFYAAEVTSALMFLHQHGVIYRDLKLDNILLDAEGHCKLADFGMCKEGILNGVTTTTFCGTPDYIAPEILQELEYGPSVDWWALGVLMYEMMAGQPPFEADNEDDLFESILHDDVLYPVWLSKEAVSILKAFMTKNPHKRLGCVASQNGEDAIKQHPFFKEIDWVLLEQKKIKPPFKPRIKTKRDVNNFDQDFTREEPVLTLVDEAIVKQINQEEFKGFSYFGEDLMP

Row | Compound | IC50 (Pim3 kinase; read-out: IC50 (μM) PIM3) [µM] | IC50 (Pim1 kinase; read-out: IC50 (μM) PIM1) [µM] | IC50 (Pim2 kinase; read-out: IC50 (μM) PIM2) [µM] | IC50 [1] [nM] | IC50 (Pim3 kinase; read-out: PIM3 IC50) [µM] | IC50 (Pim1 kinase; read-out: PIM1 IC50) [µM] | IC50 (Pim2 kinase; read-out: PIM2 IC50) [µM] | EC50 (HEL 92.1.7 cells; read-out: EC50 (μM) HEL 92.1.7) [µM] | EC50 (HEL 92.1.7 cells; read-out: HEL 92.1.7 EC50) [µM]
1 | Nc1ncc(Br)nc1C(=O)Nc1[nH]c(=O)ncc1N1CCC(F)CC1 [Example 150, 3-amino-6-bromo-N-[5-(4-fluoropiperidin-1-yl)-2-oxo-2,3-dihydropyrimidin-4-yl]pyrazine-2-carboxamide] | < 1 | < 1 | < 1 | 1000 to 10000 | – | – | – | 1 to 5 | –
2 | Nc1nc(N)c(C(=O)Nc2[nH]c(=O)ncc2N2CCC(F)CC2)nc1Cl [Example 151, 3,5-diamino-6-chloro-N-[5-(4-fluoropiperidin-1-yl)-2-oxo-2,3-dihydropyrimidin-4-yl]pyrazine-2-carboxamide] | < 1 | < 1 | < 1 | > 25000 | – | – | – | > 10 | –
3 | Nc1nccnc1C(=O)Nc1cnccc1N1CCC[C@@H](N)C1 [Example 177, 3-amino-N-{4-[(3R)-3-amino-piperidin-1-yl]pyridin-3-yl}pyrazine-2-carboxamide] | < 1 | – | < 1 | < 1000 | – | – | – | > 10 | –
4 | Nc1ccc(-c2cccnc2F)nc1C(=O)Nc1cnccc1N1CCC[C@H](N)C1 [Example 419, 5-amino-2′-fluoro-[2,3′]bi-pyridinyl-6-carboxylic acid ((S)-3-amino-3,4,5,6-tetrahydro-2H-[1,4′]bipyridinyl-3′-yl)-amide] | < 1 | < 1 | < 1 | – | – | – | – | 1 to 5 | –
5 | COc1ncccc1-c1ccc(N)c(C(=O)Nc2cnccc2N2CCC[C@H](N)C2)n1 [Example 423, 5-amino-2′-methoxy-[2,3′]bi-pyridinyl-6-carboxylic acid ((S)-3-amino-3,4,5,6-tetrahydro-2H-[1,4′]bipyridinyl-3′-yl)-amide] | < 1 | < 1 | < 1 | – | – | – | – | 1 to 5 | –
6 | Cc1cccc(C)c1-c1ccc(N)c(C(=O)Nc2cnccc2N2CCC[C@H](N)C2)n1 [Example 426, 3-amino-6-(2,6-dimethyl-phenyl)-pyridine-2-carboxylic acid ((S)-3-amino-3,4,5,6-tetra-hydro-2H-[1,4′]bipyridinyl-3′-yl)-amideQ] | < 1 | < 1 | < 1 | – | – | – | – | 5 to 10 | –
7 | COc1cc(F)ccc1-c1ccc(N)c(C(=O)Nc2cnccc2N2CCC[C@H](N)C2)n1 [Example 428, 3-amino-6-(4-fluoro-2-methoxy-phenyl)-pyridine-2-carboxylic acid ((S)-3-amino-3,4,5,6-tetra-hydro-2H-[1,4′]bipyridinyl-3′-yl)-amide] | < 1 | < 1 | < 1 | – | – | – | – | 5 to 10 | –
8 | Cc1cc(Cl)ccc1-c1ccc(N)c(C(=O)Nc2cnccc2N2CCC[C@H](N)C2)n1 [Example 429, 3-amino-6-(4-chloro-2-methyl-phenyl)-pyridine-2-carboxylic acid ((S)-3-amino-3,4,5,6-tetra-hydro-2H-[1,4′]bipyridinyl-3′-yl)-amide] | < 1 | < 1 | < 1 | – | – | – | – | 5 to 10 | –
9 | Cc1cc(F)ccc1-c1ccc(N)c(C(=O)Nc2cnccc2N2CCC[C@H](N)C2)n1 [Example 430, 3-amino-6-(4-fluoro-2-methyl-phenyl)-pyridine-2-carboxylic acid ((S)-3-amino-3,4,5,6-tetra-hydro-2H-[1,4′]bipyridinyl-3′-yl)-amide] | < 1 | < 1 | < 1 | – | – | – | – | 1 to 5 | –
10 | COc1ncccc1-c1ccc(N)c(C(=O)Nc2cnccc2N2CCCCC2)n1 [Example 587, 5-amino-2′-methoxy-[2,3′]bi-pyridinyl-6-carboxylic acid (3,4,5,6-tetrahydro-2H-[1,4′]bipyridinyl-3′-yl)-amide] | – | – | – | – | < 1 | < 1 | < 1 | – | < 1
11 | Cc1ccccc1-c1cnc(N)c(C(=O)Nc2[nH]c(=O)ncc2N2CCCCC2)n1 [Example 591, 3-amino-6-o-tolyl-pyrazine-2-carboxylic acid (2-oxo-5-piperidin-1-yl-2,3-dihydro-pyrimidin-4-yl)-amide] | – | – | – | – | < 1 | < 1 | < 1 | – | 5 to 10

Continued, in another order:

Row | IC50 (Pim3 kinase; read-out: IC50 (μM) PIM3) [µM] | IC50 (Pim1 kinase; read-out: IC50 (μM) PIM1) [µM] | IC50 (Pim2 kinase; read-out: IC50 (μM) PIM2) [µM] | IC50 [1] [nM] | IC50 (Pim3 kinase; read-out: PIM3 IC50) [µM] | IC50 (Pim1 kinase; read-out: PIM1 IC50) [µM] | IC50 (Pim2 kinase; read-out: PIM2 IC50) [µM] | Compound | EC50 (HEL 92.1.7 cells; read-out: EC50 (μM) HEL 92.1.7) [µM] | EC50 (HEL 92.1.7 cells; read-out: HEL 92.1.7 EC50) [µM]
12 | < 1 | < 1 | < 1 | 1000 to 10000 | – | – | – | Nc1ncc(Br)nc1C(=O)Nc1[nH]c(=O)ncc1-c1cccs1 [Example 142, 3-amino-6-bromo-N-[2-oxo-5-(2-thienyl)-2,3-dihydro-pyrimidin-4-yl]pyrazine-2-carboxamide] | 1 to 5 | –
13 | < 1 | < 1 | < 1 | > 25000 | – | – | – | Nc1ncc(Br)nc1C(=O)Nc1[nH]c(=O)ncc1-c1nccs1 [Example 143, 3-amino-6-bromo-N-[2-oxo-5-(1,3-thiazol-2-yl)-2,3-dihydro-pyrimidin-4-yl]pyrazine-2-carboxamide] | 1 to 5 | –
14 | < 1 | < 1 | < 1 | > 25000 | – | – | – | Nc1ncc(Br)nc1C(=O)Nc1[nH]c(=O)ncc1-c1ccccn1 [Example 145, 3-amino-6-bromo-N-(2-oxo-5-pyridin-2-yl-2,3-dihydro-pyrimidin-4-yl)pyrazine-2-carboxamide] | 1 to 5 | –
15 | < 1 | < 1 | < 1 | < 1000 | – | – | – | Nc1nccnc1C(=O)Nc1[nH]c(=O)ncc1N1CCCC(C(F)(F)F)C1 (stereo not shown) [Example 146, 3-amino-N-{2-oxo-5-[3-(trifluoromethyl)piperidin-1-yl]-2,3-dihydropyrimidin-4-yl}-pyrazine-2-carboxamide] | > 10 | –
16 | < 1 | < 1 | < 1 | < 1000 | – | – | – | Nc1ncc(Br)nc1C(=O)Nc1[nH]c(=O)ncc1N1CCCC(C(F)(F)F)C1 (stereo not shown) [Example 147, 3-amino-6-bromo-N-{2-oxo-5-[3-(trifluoromethyl)piperidin-1-yl]-2,3-dihydropyrimidin-4-yl}-pyrazine-2-carboxamide] | 5 to 10 | –
17 | < 1 | < 1 | < 1 | 10000 to 25000 | – | – | – | Nc1nc(N)c(C(=O)Nc2[nH]c(=O)ncc2N2CCCC(C(F)(F)F)C2)nc1Cl (stereo not shown) [Example 148, 3,5-diamino-6-chloro-N-{2-oxo-5-[3-(trifluoromethyl)piperidin-1-yl]-2,3-dihydropyrimidin-4-yl}pyrazine-2-carboxamide] | > 10 | –
